Source: patent US20240190831A1, “TRANSTHYRETIN STABILIZING COMPOUNDS” (Protego Biopharma, Inc., priority 2021, published 2024)
Where a name gives a salt, the structure may show the parent alone.

Assay: In vitro rat liver S9 stability assay (formation of tafamidis)
Assay type: in vitro ADME
Settings: rat liver S9, 1 μM test compound, 37° C.
Protocol: A stability assay in liver S9 (rat or human) was used to evaluate the ability of a compound provided herein to convert to an active TTR stabilizer. The test compound was added to liver S9 and incubated at 37° C. in a water bath at a concentration of 1 μM. At each time point (0, 5, 10, 20, 30 and 60 min), stop solution (tolbutamide plus labetalol) was added to precipitate protein and mixed thoroughly. After centrifugation, an aliquot of supernatant was analyzed by LC-MS/MS. The percentage of formation of active agent was calculated at each time point.

Formation of tafamidis at 60 min | SMILES
A (A is <25%) | O=C(N[C@@H]1CCC[C@@H]1O)c1ccc2nc(-c3cc(Cl)cc(Cl)c3)oc2c1 (relative stereo) [Compound 28, 2-(3,5-dichlorophenyl)-N-((cis)-2-hydroxycyclopentyl)benzo-[d]oxazole-6-carboxamide]
A (A is <25%) | O=C(N[C@@H]1CCC[C@H]1O)c1ccc2nc(-c3cc(Cl)cc(Cl)c3)oc2c1 (relative stereo) [Compound 29, 2-(3,5-dichlorophenyl)-N-((trans)-2-hydroxycyclopentyl)benzo-[d]oxazole-6-carboxamide]
A (A is <25%) | O=C(N[C@@H]1CC[C@H](O)C1)c1ccc2nc(-c3cc(Cl)cc(Cl)c3)oc2c1 (relative stereo) [Compound 30, 2-(3,5-dichlorophenyl)-N-((cis)-3-hydroxycyclopentyl)benzo-[d]oxazole-6-carboxamide]
A (A is <25%) | O=C(N[C@@H]1CC[C@@H](O)C1)c1ccc2nc(-c3cc(Cl)cc(Cl)c3)oc2c1 (relative stereo) [Compound 31, 2-(3,5-dichlorophenyl)-N-((trans)-3-hydroxycyclopentyl)benzo-[d]oxazole-6-carboxamide]
A (A is <25%) | O=C(N[C@@H]1CCCC[C@@H]1O)c1ccc2nc(-c3cc(Cl)cc(Cl)c3)oc2c1 (relative stereo) [Compound 32, 2-(3,5-dichlorophenyl)-N-((cis)-2-hydroxycyclohexyl)benzo-[d]oxazole-6-carboxamide]
A (A is <25%) | O=C(N[C@@H]1CCCC[C@H]1O)c1ccc2nc(-c3cc(Cl)cc(Cl)c3)oc2c1 (relative stereo) [Compound 33, 2-(3,5-dichlorophenyl)-N-((trans)-2-hydroxycyclohexyl)benzo-[d]oxazole-6-carboxamide]
A (A is <25%) | CN(C)[C@H]1CC[C@@H](OC(=O)c2ccc3nc(-c4cc(Cl)cc(Cl)c4)oc3c2)C1 (relative stereo) [Compound 46, Cis-3-(dimethylamino)cyclopentyl 2-(3,5-dichlorophenyl)benzo-[d]oxazole-6-carboxylate—HCl salt]
A (A is <25%) | CN(C)[C@@H]1CC[C@@H](OC(=O)c2ccc3nc(-c4cc(Cl)cc(Cl)c4)oc3c2)C1 (relative stereo) [Compound 47, Trans-3-(dimethylamino)cyclopentyl 2-(3,5-dichlorophenyl)benzo-[d]oxazole-6-carboxylate—HCl salt]
A (A is <25%) | O=C(O[C@H]1CCN2CCC[C@H]12)c1ccc2nc(-c3cc(Cl)cc(Cl)c3)oc2c1 (relative stereo) [Compound 58, (cis)-hexahydro-1H-pyrrolizin-1-yl 2-(3,5-dichlorophenyl)benzo[d]oxazole-6-carboxylate]
A (A is <25%) | O=C(O[C@H]1CCN2CCC[C@@H]12)c1ccc2nc(-c3cc(Cl)cc(Cl)c3)oc2c1 (relative stereo) [Compound 59, (trans)-hexahydro-1H-pyrrolizin-1-yl 2-(3,5-dichlorophenyl)benzo[d]oxazole-6-carboxylate]
C (C is ≥50 to <75%) | CC(CO)OC(=O)c1ccc2nc(-c3cc(Cl)cc(Cl)c3)oc2c1 (single isomer, unassigned) [Compound 43, 1-hydroxypropan-2-yl 2-(3,5-dichlorophenyl) benzo[d]oxazole-6-carboxylate]
C (C is ≥50 to <75%) | CC(CO)OC(=O)c1ccc2nc(-c3cc(Cl)cc(Cl)c3)oc2c1 (single isomer, unassigned) [Compound 44, 1-hydroxypropan-2-yl 2-(3,5-dichlorophenyl) benzo[d]oxazole-6-carboxylate]
A (A is <25%) | O=C(O[C@H]1CCCN2CCC[C@H]12)c1ccc2nc(-c3cc(Cl)cc(Cl)c3)oc2c1 (single isomer, unassigned) [Compound 69, Octahydroindolizin-8-yl 2-(3,5-dichlorophenyl)benzo[d]oxazole-6-carboxylate]
A (A is <25%) | O=C(O[C@H]1CCCN2CCC[C@@H]12)c1ccc2nc(-c3cc(Cl)cc(Cl)c3)oc2c1 (single isomer, unassigned) [Compound 70, Octahydroindolizin-8-yl 2-(3,5-dichlorophenyl)benzo[d]oxazole-6-carboxylate]
B (B is ≥25 to <50%) | O=C(O[C@H]1CCCN2CCCC[C@H]12)c1ccc2nc(-c3cc(Cl)cc(Cl)c3)oc2c1 (single isomer, unassigned) [Compound 71, Octahydro-1H-quinolizin-1-yl 2-(3,5-dichlorophenyl)benzo[d]oxazole-6-carboxylate]
A (A is <25%) | O=C(O[C@H]1CCCN2CCCC[C@@H]12)c1ccc2nc(-c3cc(Cl)cc(Cl)c3)oc2c1 (single isomer, unassigned) [Compound 72, Octahydro-1H-quinolizin-1-yl 2-(3,5-dichlorophenyl)benzo[d]oxazole-6-carboxylate]
A (A is <25%) | CC(F)(F)CNC(=O)c1ccc2nc(-c3cc(Cl)cc(Cl)c3)oc2c1 [Compound 1, 2-(3,5-dichlorophenyl)-N-(2,2-difluoropropyl)benzo[d]oxazole-6-carboxamide]
A (A is <25%) | CC(NC(=O)c1ccc2nc(-c3cc(Cl)cc(Cl)c3)oc2c1)C(F)F (centres unmarked) [Compound 2, 2-(3,5-dichlorophenyl)-N-(1,1-difluoropropan-2-yl)benzo[d]oxazole-6-carboxamide]

Formation of tafamidis at 60 min | SMILES
A (A is <25%) | O=C(NCC(F)(F)C(F)(F)F)c1ccc2nc(-c3cc(Cl)cc(Cl)c3)oc2c1 [Compound 3, 2-(3,5-dichlorophenyl)-N-(2,2,3,3,3-pentafluoropropyl)benzo[d]oxazole-6-carboxamide]
A (A is <25%) | NC(=O)c1ccc2nc(-c3cc(Cl)cc(Cl)c3)oc2c1 [Compound 4, 2-(3,5-dichlorophenyl)benzo[d]oxazole-6-carboxamide]
A (A is <25%) | N#CCNC(=O)c1ccc2nc(-c3cc(Cl)cc(Cl)c3)oc2c1 [Compound 5, N-(cyanomethyl)-2-(3,5-dichlorophenyl)benzo[d]oxazole-6-carboxamide]
A (A is <25%) | COCCNC(=O)c1ccc2nc(-c3cc(Cl)cc(Cl)c3)oc2c1 [Compound 6, 2-(3,5-dichlorophenyl)-N-(2-methoxyethyl)benzo[d]oxazole-6-carboxamide]
A (A is <25%) | CN(C)CCN(C)C(=O)c1ccc2nc(-c3cc(Cl)cc(Cl)c3)oc2c1 [Compound 8, 2-(3,5-dichlorophenyl)-N-(2-(dimethylamino)ethyl)-N-methylbenzo[d]oxazole-6-carboxamide]
A (A is <25%) | CNCCNC(=O)c1ccc2nc(-c3cc(Cl)cc(Cl)c3)oc2c1 [Compound 9, 2-(3,5-dichlorophenyl)-N-(2-(methylamino)ethyl)benzo[d]oxazole-6-carboxamide hydrochloride]
A (A is <25%) | CC(CO)NC(=O)c1ccc2nc(-c3cc(Cl)cc(Cl)c3)oc2c1 (centres unmarked) [Compound 10, 2-(3,5-dichlorophenyl)-N-(1-hydroxypropan-2-yl)benzo[d]oxazole-6-carboxamide]
A (A is <25%) | CC(O)CNC(=O)c1ccc2nc(-c3cc(Cl)cc(Cl)c3)oc2c1 (centres unmarked) [Compound 11, 2-(3,5-dichlorophenyl)-N-(2-hydroxypropyl)benzo[d]oxazole-6-carboxamide]
A (A is <25%) | O=C(NC1CC1(F)F)c1ccc2nc(-c3cc(Cl)cc(Cl)c3)oc2c1 (centres unmarked) [Compound 12, 2-(3,5-dichlorophenyl)-N-(2,2-difluorocyclopropyl)benzo[d]-oxazole-6-carboxamide]
A (A is <25%) | O=C(NC1CCCCC1(F)F)c1ccc2nc(-c3cc(Cl)cc(Cl)c3)oc2c1 (centres unmarked) [Compound 13, 2-(3,5-dichlorophenyl)-N-(2,2-difluorocyclohexyl)benzo[d]oxazole-6-carboxamide]
A (A is <25%) | O=C(NC1CCCC(F)(F)C1)c1ccc2nc(-c3cc(Cl)cc(Cl)c3)oc2c1 (centres unmarked) [Compound 14, 2-(3,5-dichlorophenyl)-N-(3,3-difluorocyclohexyl)benzo[d]oxazole-6-carboxamide]
A (A is <25%) | O=C(NC1CCC(F)(F)CC1)c1ccc2nc(-c3cc(Cl)cc(Cl)c3)oc2c1 [Compound 15, 2-(3,5-dichlorophenyl)-N-(4,4-difluorocyclohexyl)benzo[d]oxazole-6-carboxamide]
A (A is <25%) | O=C(NC1COC1)c1ccc2nc(-c3cc(Cl)cc(Cl)c3)oc2c1 [Compound 16, 2-(3,5-dichlorophenyl)-N-(oxetan-3-yl)benzo[d]oxazole-6-carboxamide]
A (A is <25%) | O=C(NC1CCOC1)c1ccc2nc(-c3cc(Cl)cc(Cl)c3)oc2c1 (centres unmarked) [Compound 17, 2-(3,5-dichlorophenyl)-N-(tetrahydrofuran-3-yl)benzo[d]oxazole-6-carboxamide]
A (A is <25%) | O=C(NC1CCC1)c1ccc2nc(-c3cc(Cl)cc(Cl)c3)oc2c1 [Compound 18, N-cyclobutyl-2-(3,5-dichlorophenyl)benzo[d]oxazole-6-carboxamide]
A (A is <25%) | O=C(NC1CCCC1)c1ccc2nc(-c3cc(Cl)cc(Cl)c3)oc2c1 [Compound 19, N-cyclopentyl-2-(3,5-dichlorophenyl)benzo[d]oxazole-6-carboxamide]
A (A is <25%) | O=C(NC1CC1)c1ccc2nc(-c3cc(Cl)cc(Cl)c3)oc2c1 [Compound 20, N-cyclopropyl-2-(3,5-dichlorophenyl)benzo[d]oxazole-6-carboxamide]
